Source: patent US11498929B2, “Chromenopyrimidine derivatives as phosphatidylinsitol phosphate kinase inhibitors” (Hibercell, Inc., priority 2019, dated 2022)

Key:
[1] = target: T1, PIP4K2 B (GST-tagged PIP4KtypeIIB) (Homo sapiens, UniProt P78356); experiment: Kinase Assay - PIP4K2 B (inhibition of PIP4K2 B kinase assay); type: biochemical; settings: compounds listed under IC50 bin headings
T1 construct: GST; made in house; host or cells: E. coli
T1 sequence (P78356 1-416): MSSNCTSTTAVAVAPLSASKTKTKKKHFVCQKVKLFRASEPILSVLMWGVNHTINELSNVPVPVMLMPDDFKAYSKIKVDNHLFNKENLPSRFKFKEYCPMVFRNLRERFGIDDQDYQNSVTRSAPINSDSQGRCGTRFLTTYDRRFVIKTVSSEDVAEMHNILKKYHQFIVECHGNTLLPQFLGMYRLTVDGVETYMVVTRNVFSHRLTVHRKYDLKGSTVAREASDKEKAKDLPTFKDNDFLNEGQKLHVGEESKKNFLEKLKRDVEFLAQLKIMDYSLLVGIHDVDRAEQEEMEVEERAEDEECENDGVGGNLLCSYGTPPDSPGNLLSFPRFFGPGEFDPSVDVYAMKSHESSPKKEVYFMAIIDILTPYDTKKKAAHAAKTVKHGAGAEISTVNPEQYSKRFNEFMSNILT
Text: GST tagged PIP4KtypeIIA and B enzymes were overexpressed in E. Coli and purified to >80% homogeneity. Phosphatidyl inositol-5-phosphate (PI5P, Cat. #850152, Avanti Polar Lipids Inc.) was used as the lipid substrate and phosphatidyl ethanolamine (DOPE 18:1, Cat. #850725, Avanti Polar Lipids Inc.) was used as the carrier lipid for assays. Ultrapure ATP and GTP was purchased from Bellbrooke Labs. ADP Glo reagents were obtained from Promega. Transcreener FI reagent was obtained from Bellbrooke labs.
GST-tagged PIP4KtypeIIB (3.4 uL, 2.77 mg/mL) was diluted to 5 mL using HNE buffer to yield 5× enzyme stock (25 nM)
Lipid Preparation: In a 10 mL pyrex glass vial, 1 ug of PI5P and 1 ug of DOPE were suspended in 2.5 mL of HEPES buffer mix and 2.5 mL of H:E buffer. The contents were mixed and sonicated for 3 min to yield a translucent lipid stock.
Compound Preparation: Compounds were stored as 5 mM stocks in neat DMSO as room temperature in glass vials. 5 mM stocks were diluted to 2 mM and then serially diluted (3×) in neat DMSO in 96 well polypropylene plates. From the serially diluted stocks, 3 uL was delivered into 250 uL of 25% DMSO (in water) to generate 5× compound stocks. Typically, the highest compound conc. was 24 uM.
The assay volume was kept at 25 uL. To each well of the reaction plate, 10 uL of lipid stock (1:1 ratio PI5P:DOPE) was delivered. This was followed by the addition of 5 uL of compound in 25% DMSO. Then, to each well, 5 uL of 25 nM (5×) typeIIB enzyme was delivered. The contents were mixed well and incubated for 1 h at 27 C. After 1 h, reaction was initiated by adding 5 uL of 500 uM GTP and the contents were mixed well with a multi-channel pipetteman. The final concentration of the reagents are as follows: 50 mM HEPES, pH 7.3, 10 mM MgCl2, 20 mM NaCl, 0.01% v/v triton-X100, 5% DMSO, 100 uM GTP, 80 uM (2 ug) PI5P, 2 ug DOPE, and 5 nM PIP4KIIB Typically, the highest conc. of compounds was 4.8 uM and the lowest conc. was 0.
After 2 h, the reaction was quenched by adding 25 uL of transcreener FI reagent. The contents were incubated at RT for 1 h and the Fluorescence (Ex:584 Em: 623) was read using Molecular Devices Paradigm plate reader. […] The blanks were averaged and subtracted from all other wells. Using a calibration curve, RFU was converted to uM GDP (product). IC50 was calculated by plotting the residual activity (expressed as % No inhibitor control) vs. log [Inh. conc.]

MOLM-16 = MOLM-16 EC50 assay; type: cell-based; settings: MOLM16
PIP4K2A = target: T2, PIP4K2A (Homo sapiens, UniProt P48426); experiment: Kinase Assay - PIP4K2 A (inhibition of PIP4K2 A kinase assay); type: biochemical; settings: compounds listed under IC50 bin headings
T2 construct: GST; made in house; host or cells: E. coli
T2 sequence (P48426 1-406): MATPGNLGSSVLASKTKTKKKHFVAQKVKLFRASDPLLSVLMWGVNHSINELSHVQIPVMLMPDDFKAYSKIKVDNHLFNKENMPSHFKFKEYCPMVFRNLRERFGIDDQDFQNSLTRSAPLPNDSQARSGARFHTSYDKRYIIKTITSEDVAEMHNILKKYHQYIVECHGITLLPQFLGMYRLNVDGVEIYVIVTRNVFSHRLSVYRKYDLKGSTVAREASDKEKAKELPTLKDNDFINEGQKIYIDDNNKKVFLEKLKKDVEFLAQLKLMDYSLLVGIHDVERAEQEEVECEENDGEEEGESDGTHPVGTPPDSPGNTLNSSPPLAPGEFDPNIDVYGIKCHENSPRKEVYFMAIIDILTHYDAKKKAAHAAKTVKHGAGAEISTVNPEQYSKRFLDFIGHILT
Description: Dilution series of the compounds were prepared in DMSO at 100 times the final assay concentration (n1=n0/3 in 10 points). The compounds were further diluted to three times the assay concentration in assay buffer (20 mM MOPS pH 7.2, 25 mM magnesium chloride, 0.005% Tween 20). 6 μL of the diluted compounds were added to a 384 well assay plate followed by 9 μL of a mix consisting of 4 nM PIP4K2A (full length protein, SignalChem) and 100 μM PI(5)P diC8 (Tebu-Bio). Enzyme and compounds were pre-incubated at room temperature for 15 minutes.
Then 3 μL of a solution containing 60 μM ATP (Promega) in assay buffer was added to the wells containing compound and enzyme and mixing was performed by pipetting several times. The reaction was incubated at room temperature for 1 h. Then 18 μL of ADP-Glo™ Reagent (Promega) was added to stop the kinase reaction and deplete the unconsumed ATP, mixing was performed by pipetting several times. The plate was incubated at room temperature for 40 minutes before addition of 36 μL of Kinase Detection Reagent (Promega) to convert ADP to ATP and introduce luciferase and luciferin to detect ATP. The reaction was incubated at room temperature for 40 minutes before the luminescence was measured in a in a Victor 3V 1420 multilabel counter (Perkin Elmer).
Percent inhibition of the compounds as compared to dimethyl sulfoxide treated control samples was calculated. Compound concentration versus percent inhibition were fitted to generate IC50 values. […]

SMILES | IC50 [1] | EC50 (MOLM-16) | IC50 (PIP4K2A)
CNC(=O)N1CCOc2ncc(Nc3ncc4c(n3)C(C)(C)Oc3cc(-n5nncc5C)ccc3-4)cc21 [Compound 8, 7-{[5,5-dimethyl-8-(5-methyl-1H-1,2,3-triazol-1-yl)-5H-chromeno[3,4-d]pyrimidin-3-yl]amino}-N-methyl-1H,2H,3H-pyrido[2,3-b][1,4]oxazine-1-carboxamide] | 1 to 10 nM | 100 to 1000 nM | ≤ 1 nM
Cc1cnnn1-c1ccc2c(c1)OC(C)(C)c1nc(Nc3cnc4c(c3)N(C(=O)NC3CC3)CCO4)ncc1-2 [Compound 9, N-cyclopropyl-7-{[5,5-dimethyl-8-(5-methyl-1H-1,2,3-triazol-1-yl)-5H-chromeno[3,4-d]pyrimidin-3-yl]amino}-1H,2H,3H-pyrido[2,3-b][1,4]oxazine-1-carboxamide] | 1 to 10 nM | 100 to 1000 nM | ≤ 1 nM
Cc1cnnn1-c1ccc2c(c1)OC(C)(C)c1nc(Nc3cnc4c(c3)N(C(=O)CN(C)C)CCO4)ncc1-2 [Compound 10, 1-(7-{[5,5-dimethyl-8-(5-methyl-1H-1,2,3-triazol-1-yl)-5H-chromeno[3,4-d]pyrimidin-3-yl]amino}-1H,2H,3H-pyrido[2,3-b][1,4]oxazin-1-yl)-2-(dimethylamino)ethan-1-one] | 1 to 10 nM | 100 to 1000 nM | ≤ 1 nM
CNC(=O)N1CCOc2ncc(Nc3ncc4c(n3)C(C)(C)Oc3cc(-c5nocc5C)ccc3-4)cc21 [Compound 11, 7-{[5,5-dimethyl-8-(4-methyl-1,2-oxazol-3-yl)-5H-chromeno[3,4-d]pyrimidin-3-yl]amino}-N-methyl-1H,2H,3H-pyrido[2,3-b][1,4]oxazine-1-carboxamide] | 1 to 10 nM | 100 to 1000 nM | ≤ 1 nM
CC(=O)OC(C)C(=O)N1CCOc2ncc(Nc3ncc4c(n3)C(C)(C)Oc3cc(-n5nncc5C)ccc3-4)cc21 (stereo not drawn) [Compound 12, 1-(7-{[5,5-dimethyl-8-(5-methyl-1H-1,2,3-triazol-1-yl)-5H-chromeno[3,4-d]pyrimidin-3-yl]amino}-1H,2H,3H-pyrido[2,3-b][1,4]oxazin-1-yl)-1-oxopropan-2-yl acetate] | 1 to 10 nM | > 1000 nM | ≤ 1 nM
Cc1cnnn1-c1ccc2c(c1)OC(C)(C)c1nc(Nc3cnc4c(c3)N(CC3COC3)CCO4)ncc1-2 [Compound 13, 5,5-dimethyl-8-(5-methyl-1H-1,2,3-triazol-1-yl)-N-{1-[(oxetan-3-yl)methyl]-1H,2H,3H-pyrido[2,3-b][1,4]oxazin-7-yl}-5H-chromeno[3,4-d]pyrimidin-3-amine] | 1 to 10 nM | 100 to 1000 nM | ≤ 1 nM
Cc1cnnn1-c1ccc2c(c1)OC(C)(C)c1nc(Nc3cncc(CNCCS(C)(=O)=O)c3)ncc1-2 [Compound 14, N-[5,5-dimethyl-8-(5-methyl-1H-1,2,3-triazol-1-yl)-5H-chromeno[3,4-d]pyrimidin-3-yl]-5-{[(2-methanesulfonylethyl)amino]methyl}pyridin-3-amine] | 1 to 10 nM | > 1000 nM | ≤ 1 nM
Cc1conc1-c1ccc2c(c1)OC(C)(C)c1nc(Nc3cnc4c(c3)N(C(=O)N(C)C)CCO4)ncc1-2 [Compound 15, 7-{[5,5-dimethyl-8-(4-methyl-1,2-oxazol-3-yl)-5H-chromeno[3,4-d]pyrimidin-3-yl]amino}-N,N-dimethyl-1H,2H,3H-pyrido[2,3-b][1,4]oxazine-1-carboxamide] | 1 to 10 nM | 100 to 1000 nM | ≤ 1 nM
CC(=O)OC1(C(=O)N2CCOc3ncc(Nc4ncc5c(n4)C(C)(C)Oc4cc(-n6nncc6C)ccc4-5)cc32)CC1 [Compound 16, 1-(7-{[5,5-dimethyl-8-(5-methyl-1H-1,2,3-triazol-1-yl)-5H-chromeno[3,4-d]pyrimidin-3-yl]amino}-1H,2H,3H-pyrido[2,3-b][1,4]oxazine-1-carbonyl)cyclopropyl acetate] | 1 to 10 nM | > 1000 nM | ≤ 1 nM
CCN1CCN(Cc2cncc(Nc3ncc4c(n3)C(C)(C)Oc3cc(-n5nncc5C)ccc3-4)c2)CC1 [Compound 17, N-[5,5-dimethyl-8-(5-methyl-1H-1,2,3-triazol-1-yl)-5H-chromeno[3,4-d]pyrimidin-3-yl]-5-[(4-ethylpiperazin-1-yl)methyl]pyridin-3-amine] | 1 to 10 nM | 100 to 1000 nM | ≤ 1 nM
CC1(C)Oc2cc(N3CCCC3=O)ccc2-c2cnc(Nc3cncc(N4CCN(CCO)CC4)c3)nc21 [Compound 19, 1-[3-({5-[4-(2-hydroxyethyl)piperazin-1-yl]pyridin-3-yl}amino)-5,5-dimethyl-5H-chromeno[3,4-d]pyrimidin-8-yl]pyrrolidin-2-one] | 10 to 100 nM | 10 to 100 nM | 1 to 10 nM
CN1CCN(CC(=O)N2CCOc3ncc(Nc4ncc5c(n4)C(C)(C)Oc4cc(N6CCCC6=O)ccc4-5)cc32)CC1 [Compound 22, 1-[5,5-dimethyl-3-({1-[2-(4-methylpiperazin-1-yl)acetyl]-1H,2H,3H-pyrido[2,3-b][1,4]oxazin-7-yl}amino)-5H-chromeno[3,4-d]pyrimidin-8-yl]pyrrolidin-2-one] | 10 to 100 nM | 10 to 100 nM | 1 to 10 nM
CC1(C)Oc2cc(N3CCCC3=O)ccc2-c2cnc(Nc3cnc4c(c3)N(C(=O)NC3CC3)CCO4)nc21 [Compound 23, N-cyclopropyl-7-{[5,5-dimethyl-8-(2-oxopyrrolidin-1-yl)-5H-chromeno[3,4-d]pyrimidin-3-yl]amino}-1H,2H,3H-pyrido[2,3-b][1,4]oxazine-1-carboxamide] | 10 to 100 nM | 10 to 100 nM | 1 to 10 nM
CN(C)C1CCN(c2cncc(Nc3ncc4c(n3)C(C)(C)Oc3cc(N5CCCC5=O)ccc3-4)c2)CC1 [Compound 25, 1-[3-({5-[4-(dimethylamino)piperidin-1-yl]pyridin-3-yl}amino)-5,5-dimethyl-5H-chromeno[3,4-d]pyrimidin-8-yl]pyrrolidin-2-one] | 10 to 100 nM | 10 to 100 nM | 1 to 10 nM
